Earlier results as cited in patent publication US10842739B2, “Biodegradable alpha-2 agonist polymeric implants and therapeutic uses thereof” (Allergan, Inc., priority 2008, dated 2020).
Where two headings read alike, the source gives them in different places.

water solubility (in words): negligible
water solubility (in words) (listed as Brimonidine free base): poorly water soluble
water solubility (in words) (listed as brimonidine free base): not water soluble
SMILES: Brc1c(NC2=NCCN2)ccc2nccnc12 [brimonidine freebase, 5-bromo-6-(2-imidazolidinylideneamino)quinoxaline]
